Assay results published in ChEMBL document CHEMBL1201862, “PubChem BioAssay data set” (2004).
Activity calls are given as the source filed them.

Key:
[1] = biological target: Wee1-like protein kinase (Homo sapiens, UniProt P30291); test: Dose Response Cell-based Assay for Inhibitors of Wee1 Degradation. [Related pubchem assays: 1410, 1321 ]; type: functional
[2] = Luminescence Cell-Based Dose Response HTS to Identify Inhibitors of 5'UTR Stem-Loop Driven Prion Protein mRNA Translation in H4 Neuroglioblastoma Cells. [Related pubchem assays: 1827 (Project Summary), 1813 (Primary HTS)]; type: functional
[3] = biological target: Beta-galactosidase (Escherichia coli, UniProt Q8VNN2); test: PubChem AID 485352; type: functional
[4] = Luminescence-based dose response cell-based high throughput screening assay for cytotoxic compounds using the IEC-6 intestinal epithelial cell line. [Related pubchem assays: 1858 (Summary AID.), 1825 (Counterscreen.), 1907 (Confirmation screen.)]; type: functional
[5] = biological target: Type-1 angiotensin II receptor (Homo sapiens, UniProt P30556); test: antagonism of angiotensin II type 1 receptor – cell-based, uHTS hits, selectivity assay for APJ receptor antagonist project, dose response (AID 463214); type: functional;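 further: antagonist potency against angiotensin II stimulated AT1 response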
[6] = viability of PTEN-deleted HCT116 cells – cell-based, HCT116 PTEN knockout, dose response (AID 1047); type: functional;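 further: HCT116 colon tumor cells with PTEN knocked out; cells exposed to compound for 60 hours before readout; potency for loss of cell viability measured by luminescence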
[7] = biological target: T1, Kappa-type opioid receptor (Homo sapiens, UniProt P41145); type: functional
[8] = biological target: T1, Kappa-type opioid receptor; type: functional; remark: listed apart in the source
[9] = biological target: Heat shock protein HSP 90-alpha (Homo sapiens, UniProt P07900); type: functional, organism-based
[10] = reduction of Shn3 3'UTR-driven luciferase in osteoblasts – cell-based, Clone20 osteoblasts, firefly luciferase, cherry-picked, dose response (AID 624132); type: functional;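 further: firefly luciferase luminescence from reporter carrying the Shn3 3'UTR in osteoblasts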
[11] = loss of viability in HepG2 cells – cell-based, CellTiter-Glo, cherry-picked, cytotoxicity control for Shn3 inhibitor project, dose response (AID 624134); type: functional
[12] = biological target: T2, Zinc finger protein mex-5 (Caenorhabditis elegans, UniProt Q9XUB2); test: potency of MEX-5 RNA-binding blockers – biochemical, C. elegans, fluorescence polarization, dose response (AID 1960)
T2 sequence (Q9XUB2 whole entry): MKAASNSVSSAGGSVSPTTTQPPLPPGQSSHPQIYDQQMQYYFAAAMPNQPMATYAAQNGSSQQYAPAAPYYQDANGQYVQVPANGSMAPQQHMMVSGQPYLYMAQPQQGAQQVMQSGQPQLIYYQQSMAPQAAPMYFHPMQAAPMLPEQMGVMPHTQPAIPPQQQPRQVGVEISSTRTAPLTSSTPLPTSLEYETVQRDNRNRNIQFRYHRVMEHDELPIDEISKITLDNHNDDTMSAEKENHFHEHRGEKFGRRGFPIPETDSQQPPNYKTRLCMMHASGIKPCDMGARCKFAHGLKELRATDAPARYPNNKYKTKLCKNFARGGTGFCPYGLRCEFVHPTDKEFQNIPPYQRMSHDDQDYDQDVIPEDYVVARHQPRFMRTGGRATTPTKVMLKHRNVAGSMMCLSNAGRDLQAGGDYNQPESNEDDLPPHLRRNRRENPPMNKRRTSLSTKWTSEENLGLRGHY

[13] = biological target: Hexokinase HKDC1 (Homo sapiens, UniProt Q2TB90); test: inhibition of HKDC1 glucose phosphorylation – biochemical, W721R variant, dose response (AID 504729); type: functional
[14] = biological target: T3, Mitochondrial peptide methionine sulfoxide reductase (Bos taurus, UniProt P54149); type: functional;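 further: absorbance read-out, biochemical high-throughput dose-response screen for MsrA inhibitors, confirmatory; recombinant bovine MsrA coupled to E. coli TrxB with NADPH and selenocystamine; potency is for inhibitors of MsrA activity on DMSO substrate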
T3 sequence (P54149 whole entry): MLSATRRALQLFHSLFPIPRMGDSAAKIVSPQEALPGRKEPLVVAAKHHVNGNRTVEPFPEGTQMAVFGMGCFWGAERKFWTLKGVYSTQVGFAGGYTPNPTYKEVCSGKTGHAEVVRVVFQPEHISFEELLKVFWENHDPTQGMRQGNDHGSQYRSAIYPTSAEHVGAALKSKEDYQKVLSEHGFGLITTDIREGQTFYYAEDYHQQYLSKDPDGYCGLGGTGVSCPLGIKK

[15] = biological target: T4, Histone-lysine N-methyltransferase NSD2 (Homo sapiens, UniProt O96028); type: biochemical
T4 sequence (O96028 whole entry): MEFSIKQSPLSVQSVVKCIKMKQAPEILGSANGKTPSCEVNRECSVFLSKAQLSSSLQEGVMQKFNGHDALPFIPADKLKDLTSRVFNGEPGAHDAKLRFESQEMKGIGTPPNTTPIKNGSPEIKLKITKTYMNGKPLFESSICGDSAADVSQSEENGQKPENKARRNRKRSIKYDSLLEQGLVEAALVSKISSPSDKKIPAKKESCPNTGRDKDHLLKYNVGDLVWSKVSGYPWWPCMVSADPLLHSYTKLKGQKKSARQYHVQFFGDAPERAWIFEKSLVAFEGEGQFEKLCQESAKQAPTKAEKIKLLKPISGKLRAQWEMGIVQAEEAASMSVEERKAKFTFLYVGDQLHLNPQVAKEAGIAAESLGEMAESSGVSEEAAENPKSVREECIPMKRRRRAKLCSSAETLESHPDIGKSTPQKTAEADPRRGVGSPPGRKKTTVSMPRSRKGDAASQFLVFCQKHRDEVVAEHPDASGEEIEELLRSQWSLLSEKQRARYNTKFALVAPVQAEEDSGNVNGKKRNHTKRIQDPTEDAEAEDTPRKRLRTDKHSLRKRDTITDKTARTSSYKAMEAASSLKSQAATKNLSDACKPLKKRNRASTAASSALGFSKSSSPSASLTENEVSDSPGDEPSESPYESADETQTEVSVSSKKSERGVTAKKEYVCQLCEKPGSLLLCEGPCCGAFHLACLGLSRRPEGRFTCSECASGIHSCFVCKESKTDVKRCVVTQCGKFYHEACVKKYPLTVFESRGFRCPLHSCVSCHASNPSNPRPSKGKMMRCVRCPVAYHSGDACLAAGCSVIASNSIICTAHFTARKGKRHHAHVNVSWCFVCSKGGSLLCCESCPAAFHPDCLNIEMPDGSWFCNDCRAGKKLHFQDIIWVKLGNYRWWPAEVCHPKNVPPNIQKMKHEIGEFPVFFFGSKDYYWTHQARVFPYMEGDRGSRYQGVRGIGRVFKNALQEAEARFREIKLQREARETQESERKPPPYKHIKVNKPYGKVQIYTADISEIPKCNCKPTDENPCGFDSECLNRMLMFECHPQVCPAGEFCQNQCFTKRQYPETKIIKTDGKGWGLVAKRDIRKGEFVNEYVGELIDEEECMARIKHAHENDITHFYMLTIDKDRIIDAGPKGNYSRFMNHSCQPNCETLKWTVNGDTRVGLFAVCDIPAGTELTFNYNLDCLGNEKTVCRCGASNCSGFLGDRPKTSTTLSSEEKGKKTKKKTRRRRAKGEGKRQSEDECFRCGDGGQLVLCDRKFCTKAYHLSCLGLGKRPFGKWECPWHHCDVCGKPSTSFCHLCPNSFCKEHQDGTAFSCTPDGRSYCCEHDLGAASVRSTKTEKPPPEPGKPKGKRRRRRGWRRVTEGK

T1 sequence (P41145 whole entry): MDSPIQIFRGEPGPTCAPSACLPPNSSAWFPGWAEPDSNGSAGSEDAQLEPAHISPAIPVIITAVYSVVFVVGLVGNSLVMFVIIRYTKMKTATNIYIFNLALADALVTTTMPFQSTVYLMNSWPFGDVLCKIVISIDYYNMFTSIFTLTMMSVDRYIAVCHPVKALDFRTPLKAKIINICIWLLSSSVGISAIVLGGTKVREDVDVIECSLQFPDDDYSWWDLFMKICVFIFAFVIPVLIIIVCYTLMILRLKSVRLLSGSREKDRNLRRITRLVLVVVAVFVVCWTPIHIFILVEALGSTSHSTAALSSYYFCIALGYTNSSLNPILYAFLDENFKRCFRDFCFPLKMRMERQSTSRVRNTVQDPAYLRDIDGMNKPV
Sequence of Beta-galactosidase (Q8VNN2 whole entry): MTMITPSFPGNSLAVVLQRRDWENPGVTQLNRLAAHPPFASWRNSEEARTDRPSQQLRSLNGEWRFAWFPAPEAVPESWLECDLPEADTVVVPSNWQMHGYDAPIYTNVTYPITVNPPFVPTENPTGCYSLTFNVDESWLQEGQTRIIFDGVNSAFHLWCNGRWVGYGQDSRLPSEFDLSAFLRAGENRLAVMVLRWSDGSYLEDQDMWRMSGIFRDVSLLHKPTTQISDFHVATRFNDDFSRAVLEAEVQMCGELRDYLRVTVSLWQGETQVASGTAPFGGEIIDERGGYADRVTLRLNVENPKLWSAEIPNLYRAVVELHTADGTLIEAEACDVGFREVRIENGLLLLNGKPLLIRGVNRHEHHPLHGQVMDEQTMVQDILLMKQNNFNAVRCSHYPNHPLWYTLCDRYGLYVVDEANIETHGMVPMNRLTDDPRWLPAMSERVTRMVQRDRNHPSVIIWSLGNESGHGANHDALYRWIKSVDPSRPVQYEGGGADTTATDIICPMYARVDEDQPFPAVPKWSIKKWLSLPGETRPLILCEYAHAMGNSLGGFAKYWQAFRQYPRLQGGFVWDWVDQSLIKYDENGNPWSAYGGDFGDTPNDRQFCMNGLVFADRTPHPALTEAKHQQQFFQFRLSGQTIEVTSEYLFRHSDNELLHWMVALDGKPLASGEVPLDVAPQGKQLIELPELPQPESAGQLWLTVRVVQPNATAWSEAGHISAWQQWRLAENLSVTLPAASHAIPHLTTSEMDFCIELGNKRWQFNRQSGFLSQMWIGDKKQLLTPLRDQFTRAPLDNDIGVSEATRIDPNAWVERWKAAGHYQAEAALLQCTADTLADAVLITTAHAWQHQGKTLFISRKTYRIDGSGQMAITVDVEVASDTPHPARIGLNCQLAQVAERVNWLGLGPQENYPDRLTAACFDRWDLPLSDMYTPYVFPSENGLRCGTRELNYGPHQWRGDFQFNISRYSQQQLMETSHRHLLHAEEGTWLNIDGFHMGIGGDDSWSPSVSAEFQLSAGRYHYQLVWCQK
Sequence of Type-1 angiotensin II receptor (P30556 whole entry): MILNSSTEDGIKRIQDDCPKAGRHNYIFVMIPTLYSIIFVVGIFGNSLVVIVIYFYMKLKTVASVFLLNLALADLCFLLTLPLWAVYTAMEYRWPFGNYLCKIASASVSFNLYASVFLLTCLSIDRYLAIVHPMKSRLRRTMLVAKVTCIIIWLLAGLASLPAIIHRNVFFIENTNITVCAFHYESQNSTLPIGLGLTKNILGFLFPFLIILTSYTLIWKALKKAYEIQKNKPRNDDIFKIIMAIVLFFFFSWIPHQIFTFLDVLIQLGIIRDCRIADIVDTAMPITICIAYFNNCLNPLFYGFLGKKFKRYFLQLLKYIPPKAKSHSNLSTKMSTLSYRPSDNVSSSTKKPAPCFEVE
Sequence of Hexokinase HKDC1 (Q2TB90 whole entry): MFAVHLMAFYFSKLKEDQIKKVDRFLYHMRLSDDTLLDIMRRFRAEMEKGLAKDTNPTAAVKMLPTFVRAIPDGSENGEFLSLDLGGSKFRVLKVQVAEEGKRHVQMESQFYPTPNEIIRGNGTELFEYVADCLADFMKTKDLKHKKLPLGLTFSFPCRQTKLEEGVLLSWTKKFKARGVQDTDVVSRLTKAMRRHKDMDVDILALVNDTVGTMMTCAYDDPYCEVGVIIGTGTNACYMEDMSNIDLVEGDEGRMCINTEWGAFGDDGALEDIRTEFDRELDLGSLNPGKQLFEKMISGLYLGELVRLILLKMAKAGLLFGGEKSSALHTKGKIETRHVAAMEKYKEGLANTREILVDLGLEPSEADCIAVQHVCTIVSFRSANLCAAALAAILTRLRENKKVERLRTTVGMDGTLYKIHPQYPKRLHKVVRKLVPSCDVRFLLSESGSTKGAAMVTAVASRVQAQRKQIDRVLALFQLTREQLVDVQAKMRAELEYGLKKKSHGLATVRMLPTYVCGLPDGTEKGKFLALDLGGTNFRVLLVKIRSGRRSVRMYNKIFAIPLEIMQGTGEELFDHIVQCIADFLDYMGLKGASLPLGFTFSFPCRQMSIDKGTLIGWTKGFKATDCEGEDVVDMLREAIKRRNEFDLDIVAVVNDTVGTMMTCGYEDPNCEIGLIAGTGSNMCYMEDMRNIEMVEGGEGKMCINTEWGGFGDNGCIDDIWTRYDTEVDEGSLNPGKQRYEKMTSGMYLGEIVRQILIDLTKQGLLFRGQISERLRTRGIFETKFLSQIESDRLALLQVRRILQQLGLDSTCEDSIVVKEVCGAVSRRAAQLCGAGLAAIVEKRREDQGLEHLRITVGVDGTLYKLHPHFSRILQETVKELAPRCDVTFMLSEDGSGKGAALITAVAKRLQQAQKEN
Sequence of Wee1-like protein kinase (P30291 whole entry): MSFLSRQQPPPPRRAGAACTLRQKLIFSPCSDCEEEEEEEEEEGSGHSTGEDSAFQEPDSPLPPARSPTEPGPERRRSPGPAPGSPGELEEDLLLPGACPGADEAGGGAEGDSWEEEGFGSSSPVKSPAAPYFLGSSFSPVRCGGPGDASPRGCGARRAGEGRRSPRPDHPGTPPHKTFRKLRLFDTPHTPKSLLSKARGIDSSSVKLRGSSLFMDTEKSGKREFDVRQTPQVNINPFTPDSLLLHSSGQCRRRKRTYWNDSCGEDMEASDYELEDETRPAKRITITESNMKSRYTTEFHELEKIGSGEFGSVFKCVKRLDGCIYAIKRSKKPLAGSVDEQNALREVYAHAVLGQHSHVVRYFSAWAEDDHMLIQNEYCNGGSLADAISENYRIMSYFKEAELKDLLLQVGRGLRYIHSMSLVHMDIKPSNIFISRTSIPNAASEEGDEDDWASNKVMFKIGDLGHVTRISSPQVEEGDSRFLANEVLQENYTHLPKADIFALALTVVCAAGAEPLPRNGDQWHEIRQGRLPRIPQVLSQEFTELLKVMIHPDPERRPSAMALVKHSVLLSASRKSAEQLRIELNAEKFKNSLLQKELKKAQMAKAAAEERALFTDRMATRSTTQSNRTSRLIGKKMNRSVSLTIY

SMILES | EC50 [1] | EC50 [2] | EC50 [3] | IC50 [4] | IC50 [5] | EC50 [6] | IC50 [7] | IC50 [8] [µM] | AC50 [9] | AC50 [10] | AC50 [11] | EC50 [12] | IC50 [13] | IC50 [14] | AC50 [15]
COc1ccc(NC(=O)/C(Cl)=C(/Cl)[S+]([O-])Cc2ccccc2)cn1 (stereo not given) | > 49.7 µM (not active) | 0.998 µM (active) | > 40 µM (inactive) | 1.27 µM (active) | 3.93 µM (active) | 0.197 µM (active) | 7.1 µM (active) | 7.62 | 2 µM (active) | < 0.26 µM (active) | 5.52 µM (active) |  |  |  | 
Cc1ccc(S(=O)(=O)/N=C2\C=C(Nc3cccc(C(=O)O)c3)C(=O)c3ccccc32)c(C)c1 |  |  |  |  |  |  |  |  |  |  |  | 31.7 µM (active) | 8.6 µM (active) | 74.5 µM (inactive) | 0.255 µM (active)
